Measurements published in US6737383B1, “Herbicidal oxadiazolidines” (priority 1999, dated 2004).

Tests used:
wild oat = assay: Test E wild oat; assay type: in vivo, Avena fatua; settings: Preemergence
Spanishneedles = assay: Test D Spanishneedles; assay type: in vivo, Bidens bipinnata; settings: Preemergence, 0 to 100 scale
From the text: (§1) Seeds, tubers, or plant parts of Alexandergrass (Brachiaria plantaginea), bermuda-grass (Cynodon dactylon), common pursiane (Portulaca oleracea), common ragweed (Ambrosia elatior), common groundsel (Senecio vulgaris), dallisgrass (Paspalum dilatatum), goosegrass (Eleusine indica), guineagrass (Panicum maximum), itchgrass (Rottboellia exaltata), Johnson grass (Sorghum halepense), large crabgrass (Digitaria sanguinalis), pitted morningglory (Ipomoea lacunosa), purple nutsedge (Cyperus rotundus), sandbur (Cenchrus echinatus), sourgrass (Trichachne insularis), Spanishneedles (Bidens bipinnata), surinam grass (Brachiaria decumbens) and tall mallow (Malva sylvestris) were planted into greenhouse pots of flats containing greenhouse planting medium. Plant species were grown in separate pots or individual compartments. Preemergence applications were made within one day of planting the seed or plant part.
(§2) Test chemicals were formulated in a non-phytotoxic solvent mixture which included a surfactant and applied preemergence to the surface of the pot containing seeds in a sandy loam soil. Untreated control pots and treated pots were placed in the greenhouse for growth and visually evaluated for injury 14 to 21 days after herbicide application. Plant response ratings, summarized in Table C, are based on a 0 to 100 scale where 0 is no injury and 100 is complete control. A dash (−) response means no test result.

purple nutsedge = assay: Test D purple nutsedge; assay type: in vivo, Cyperus rotundus; settings: Preemergence, 0 to 100 scale
Summary of the method: (§3)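 Visual injury ratings, 0 = no injury to 100 = complete control, taken 14 to 21 days after treatment. Test chemicals were in a surfactant-containing non-phytotoxic solvent; preemergence treatments went onto the sandy loam surface of seeded greenhouse pots within one day of sowing.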

morningglory = assay: Test B pre/postemergence morningglory; assay type: in vivo, Ipomoea hederacea
Summary of the method: (§4)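 Response is a visual 0-to-10 score relative to untreated plants, where 0 means no effect and 10 means complete control, taken twelve to sixteen days after application. Treatments went onto soil at planting and onto foliage of 1- to 4-leaf plants, using a surfactant-containing non-phytotoxic solvent.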

blackgrass [1] = assay: Test B pre/postemergence blackgrass; assay type: in vivo, Alopecurus myosuroides
Summary of the method: as §4

blackgrass [2] = assay: Test E blackgrass; assay type: in vivo, Alopecurus myosuroides; settings: Preemergence
large crabgrass = assay: Test D large crabgrass; assay type: in vivo, Digitaria sanguinalis; settings: Preemergence, 0 to 100 scale
Summary of the method: as §3

green foxtail = assay: Test E green foxtail; assay type: in vivo, Setaria viridis; settings: Preemergence
bamyardgrass = assay: Test B flood test barnyardgrass; assay type: in vivo, Echinochloa crus-galli
Summary of the method: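 Plants were grown to the 2-leaf stage before treatment with test chemical, then held in a greenhouse for twelve to sixteen days. Injury was visually rated against untreated controls on a 0–10 scale, where 0 is no effect and 10 is complete control.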

winter wheat [3] = assay: Test E winter wheat; assay type: in vivo, Triticum aestivum; settings: Preemergence
common pursiane = assay: Test D common purslane; assay type: in vivo, Portulaca oleracea; settings: Preemergence, 0 to 100 scale
From the text: as §1, §2

Italian ryegrass = assay: Test E Italian ryegrass; assay type: in vivo, Lolium multiflorum; settings: Preemergence
winter barley = assay: Test E winter barley; assay type: in vivo, Hordeum vulgare; settings: Preemergence
winter wheat [4] = assay: Test E winter wheat; assay type: in vivo, Triticum aestivum; settings: Postemergence
Summary of the method: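 Postemergence: spray at 1–4 leaf stage, soil 60:40 sandy loam:potting mix; solvent + surfactant formulation; greenhouse 21–28 d; visual injury vs untreated controls.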

crabgrass = assay: Test B pre/postemergence crabgrass; assay type: in vivo, Digitaria sanguinalis
Summary of the method: as §4

[5] = Rate 125 g/ha, 0 to 100 scale (0 no effect, 100 complete control)
[6] = Rate 500 g/ha, 0 to 100 scale where 0 is no effect and 100 is complete control
[7] = Rate 1000 g/ha, 0 to 100 scale where 0 is no effect and 100 is complete control
[8] = Rate 16 g/ha, 0 no injury, 100 complete control
[9] = Rate 64 g/ha, 0 no injury, 100 complete control
[10] = Rate 125 g/ha, 0 no injury, 100 complete control
[11] = Rate 32 g/ha, 0 no injury, 100 complete control
[12] = Postemergence, Rate 62 g/ha, scale 0 to 10, 0 is no effect, 10 is complete control
[13] = Postemergence, Rate 250 g/ha, scale 0 to 10, 0 no effect, 10 complete control
[14] = Postemergence, Rate 1000 g/ha, scale 0 to 10 (0 no effect, 10 complete control)
[15] = Preemergence, Rate 31 g/ha, visual rating, scale 0 to 10 (0 no effect, 10 complete control)
[16] = Preemergence, Rate 62 g/ha, scale 0 to 10, 0 is no effect, 10 is complete control
[17] = Preemergence, Rate 125 g/ha, scale 0 to 10 (0 no effect, 10 complete control)
[18] = Preemergence, Rate 250 g/ha, scale of 0 to 10 where 0 is no effect and 10 is complete control
[19] = Preemergence, Rate 500 g/ha, scale 0 (no effect) to 10 (complete control)
[20] = Rate 31 g/ha, Postemergence, scale 0 to 10
[21] = Rate 125 g/ha, Postemergence, scale 0 to 10, 0 no effect, 10 complete control
[22] = Rate 500 g/ha, Postemergence, 0 to 10 scale (0 no effect, 10 complete control)
[23] = Rate 1000 g/ha, Preemergence, scale 0 to 10 (0 no effect, 10 complete control)

Cc1ccccc1-n1c(=O)on(C(=O)N(c2ccc(F)cc2)C(C)C)c1=O [Compound 4]
Plant response rating, Wild oat (wild oat; [5]): 10
Plant response rating, Wild oat (wild oat; [6]): 25
Plant response rating, Wild oat (wild oat; [7]): 50
Plant response rating, Spanishneedles (Spanishneedles; [8]): 0
Spanishneedles plant response rating (Spanishneedles; [9]): 0
Spanishneedles plant response rating (Spanishneedles; [10]): 40
Plant response rating, Spanishneedles (Spanishneedles; Rate 500 g/ha): 0
Plant response rating, Purple nutsedge (purple nutsedge; [8]): 0
Plant response rating, Purple nutsedge (purple nutsedge; [11]): 0
Purple nutsedge plant response rating (purple nutsedge; [9]): 0
Purple nutsedge plant response rating (purple nutsedge; [10]): 0
Plant response rating, Purple nutsedge (purple nutsedge; Rate 250 g/ha): 0
Plant response rating, Purple nutsedge (purple nutsedge; Rate 500 g/ha): 0
Morningglory plant response rating (morningglory; [12]): 0
Morningglory plant response rating (morningglory; [13]): 3
Morningglory plant response rating (morningglory; [14]): 3
Morningglory plant response rating (morningglory; [15]): 0
Plant response rating, Morningglory (morningglory; [16]): 0
Plant response rating, Morningglory (morningglory; [17]): 0
Plant response rating, Morningglory (morningglory; [18]): 0
Morningglory plant response rating (morningglory; [19]): 0
Morningglory plant response rating (morningglory; [20]): 0
Morningglory plant response rating (morningglory; [21]): 2
Morningglory plant response rating (morningglory; [22]): 3
Plant response rating, Morningglory (morningglory; [23]): 0
Blackgrass plant response rating (blackgrass [1]; [12]): 0
Blackgrass plant response rating (blackgrass [1]; [13]): 5
Blackgrass plant response rating (blackgrass [1]; [14]): 6
Blackgrass plant response rating (blackgrass [1]; [15]): 0
Plant response rating, Blackgrass (blackgrass [1]; [16]): 0
Plant response rating, Blackgrass (blackgrass [1]; [17]): 6
Plant response rating, Blackgrass (blackgrass [1]; [18]): 8
Blackgrass plant response rating (blackgrass [1]; [19]): 8
Blackgrass plant response rating (blackgrass [1]; [20]): 0
Blackgrass plant response rating (blackgrass [1]; [21]): 4
Blackgrass plant response rating (blackgrass [1]; [22]): 6
Plant response rating, Blackgrass (blackgrass [1]; [23]): 10
Plant response rating, Blackgrass (blackgrass [2]; [5]): 30
Plant response rating, Blackgrass (blackgrass [2]; Rate 250 g/ha, 0 to 100 scale): 50
Plant response rating, Blackgrass (blackgrass [2]; [6]): 90
Plant response rating, Blackgrass (blackgrass [2]; [7]): 100
Plant response rating, Large crabgrass (large crabgrass; [8]): 100
Plant response rating, Large crabgrass (large crabgrass; [11]): 100
Plant response rating, Large crabgrass (large crabgrass; [9]): 98
Plant response rating, Large crabgrass (large crabgrass; [10]): 100
Plant response rating, Large crabgrass (large crabgrass; Rate 250 g/ha): 100
Plant response rating, Large crabgrass (large crabgrass; Rate 500 g/ha): 100
Plant response rating, Green foxtail (green foxtail; [5]): 50
Plant response rating, Green foxtail (green foxtail; Rate 250 g/ha, 0 to 100 scale): 55
Plant response rating, Green foxtail (green foxtail; [6]): 100
Plant response rating, Green foxtail (green foxtail; [7]): 100
Barnyardgrass plant response rating (bamyardgrass; [12]): 0
Barnyardgrass plant response rating (bamyardgrass; [14]): 4
Barnyardgrass plant response rating (bamyardgrass; Rate 31 g/ha, Postemergence section (flood test species), scale 0 to 10): 0
Barnyardgrass plant response rating (bamyardgrass; Rate 125 g/ha, Postemergence section (flood test species), scale 0 to 10, 0 no effect, 10 complete control): 0
Barnyardgrass plant response rating (bamyardgrass; Rate 500 g/ha, Postemergence section of Table B, 0 to 10 scale (0 no effect, 10 complete control)): 4
Barnyardgrass plant response rating (bamyardgrass; flood test, listed under Postemergence, Rate 250 g/ha, scale 0 to 10, 0 no effect, 10 complete control): 3
Plant response rating, Wheat (winter) (winter wheat [3]; [5]): 0
Plant response rating, Wheat (winter) (winter wheat [3]; Rate 250 g/ha, 0 to 100 scale): 0
Plant response rating, Wheat (winter) (winter wheat [3]; [6]): 0
Plant response rating, Wheat (winter) (winter wheat [3]; [7]): 0
Plant response rating, C. purslane (common pursiane; [8]): 0
Plant response rating, C. purslane (common pursiane; [11]): 0
Plant response rating, C. purslane (common pursiane; [9]): 0
Plant response rating, C. purslane (common pursiane; [10]): 0
Plant response rating, C. purslane (common pursiane; Rate 250 g/ha): 0
Plant response rating, C. purslane (common pursiane; Rate 500 g/ha): 0
Plant response rating, I. Ryegrass (Italian ryegrass; [5]): 20
Plant response rating, I. Ryegrass (Italian ryegrass; Rate 250 g/ha, 0 to 100 scale): 20
Plant response rating, I. Ryegrass (Italian ryegrass; [6]): 50
Plant response rating, I. Ryegrass (Italian ryegrass; [7]): 85
Plant response rating, Barley (winter) (winter barley; [5]): 10
Plant response rating, Barley (winter) (winter barley; Rate 250 g/ha, 0 to 100 scale): 10
Plant response rating, Barley (winter) (winter barley; [6]): 10
Plant response rating, Barley (winter) (winter barley; [7]): 10
Plant response rating, Wheat (winter) (winter wheat [4]; Rate 125 g/ha, 0 to 100 scale): 0
Plant response rating, Wheat (winter) (winter wheat [4]; Rate 250 g/ha, 0 to 100 scale (0 no effect, 100 complete control)): 0
Plant response rating, Wheat (winter) (winter wheat [4]; Rate 1000 g/ha, 0 to 100 scale, 0 is no effect and 100 is complete control): 0
Plant response rating, Wheat (winter) (winter wheat [4]; Rate 500 g/ha, 0 to 100 scale, 0 no effect, 100 complete control): 0
Crabgrass plant response rating (crabgrass; [12]): 0
Crabgrass plant response rating (crabgrass; [13]): 8
Crabgrass plant response rating (crabgrass; [14]): 8
Crabgrass plant response rating (crabgrass; [15]): 3
Plant response rating, Crabgrass (crabgrass; [16]): 3
Plant response rating, Crabgrass (crabgrass; [17]): 10
Plant response rating, Crabgrass (crabgrass; [18]): 10
Crabgrass plant response rating (crabgrass; [19]): 10
Crabgrass plant response rating (crabgrass; [20]): 0
Crabgrass plant response rating (crabgrass; [21]): 5
Crabgrass plant response rating (crabgrass; [22]): 8
Plant response rating, Crabgrass (crabgrass; [23]): 10
